Measurements taken from patent US20230346803A1, “COMPOSITIONS OF BERBERINE URSODEOXYCHOLATE AND METHODS THEREOF FOR TREATING PRIMARY SCLEROSING CHOLANGITIS” (SHENZHEN HIGHTIDE BIOPHARMACEUTICAL LTD., priority 2021, published 2023).

Test system: adult subjects with PSC
Test: Phase 2, multicenter, dose-ranging, 18-week, placebo-controlled study of BUDCA in PSC
Assay type: in vivo, human
Conditions: for Share of subjects achieving a 25% reduction in ALP: 0 subjects on placebo; for Percent change from Baseline in GGT at Week 6: all subjects
Method: A Phase 2, multicenter, dose-ranging, 18-week study was conducted comparing two dose regimens of BUDCA (500 mg BID and 1,000 mg BID) to placebo in adult subjects with PSC.
BUDCA drug product (also herein referred to as HTD1801) is a film-coated tablet containing 250 mg of berberine ursodeoxycholate.
The clinical study design consisted of an initial randomized, double-blind, placebo-and dose-controlled, parallel-group period (Period 1), followed by a dose-controlled extension period (Period 2), which is followed by a placebo-controlled randomized withdrawal period (Period 3). • Period 1: Subjects were randomized to receive BID doses of 500 mg, 1,000 mg, or matching placebo for 6 weeks. The primary analysis was based on this initial 6-week randomized, double-blind, placebo- and dose-controlled, parallel-group period. • Period 2: Subjects previously randomized to 500 mg BID or 1,000 mg BID continued for 6 more weeks at that previous dose, while subjects previously randomized to placebo were re-randomized to receive 6 weeks of either 500 mg BID or 1,000 mg BID. • Period 3: Subjects were re-randomized to either continue on the active treatment they had received in Period 2 or be assigned to placebo.
Patients with a known diagnosis of PSC based upon magnetic resonance cholangiopancreatography (MRCP) or endoscopic retrograde cholangiopancreatography (ERCP) findings were eligible for inclusion in this study. To be eligible for randomization into the study, serum ALP levels at screening had to be elevated at least above 1.5 times the upper limit of normal (ULN).
The primary endpoint was the absolute change in ALP from Baseline to Week 6 (Period 1).
For this study, 88 subjects with PSC were screened, 59 were randomized, 55 received at least 1 dose of study drug (safety population), and 54 had at least 1 post-dose efficacy assessment (modified intent-to-treat (mITT) population).
All statistical tests were two-sided with an alpha level of 0.05. The statistical analyses were conducted with the SAS® System version 9.4 or higher. All analyses were subject to formal verification procedures.

[1] = Baseline ALP <3x ULN, 500 mg BID (n=8)
[2] = Baseline ALP <3x ULN, 1,000 mg BID (n=16)
[3] = Baseline ALP ≥3x ULN, 500 mg BID (n=7)
[4] = Baseline ALP ≥3x ULN, 1,000 mg BID (n=8)

COc1ccc2cc3[n+](cc2c1OC)CCc1cc2c(cc1-3)OCO2.C[C@H](CCC(=O)[O-])[C@H]1CC[C@H]2[C@@H]3[C@@H](O)C[C@@H]4C[C@H](O)CC[C@]4(C)[C@H]3CC[C@]12C [BUDCA, berberine ursodeoxycholate]
Share of subjects achieving a 25% reduction in ALP (500 mg BID, prior UDCA use, week 6): 33%
Percent change from Baseline in GGT at Week 6 (500 mg BID): -21%
Percent change in GGT at Week 6 (500 mg BID, subjects without prior UDCA use): -42%
Percent change from Baseline in GGT at Week 6 (1,000 mg BID): -40%
Percent change in GGT at Week 6 (1,000 mg BID, subjects without prior UDCA use): -67%
Mean (SD) change from Baseline to Week 6 in ALP [1]: -13 (118) U/L
Mean (SD) change from Baseline to Week 6 in ALT [1]: -63 (104) U/L
Mean (SD) change from Baseline to Week 6 in AST [1]: -18 (41) U/L
Mean (SD) change from Baseline to Week 6 in ALP [2]: -20 (106) U/L
Mean (SD) change from Baseline to Week 6 in ALT [2]: -30 (72) U/L
Mean (SD) change from Baseline to Week 6 in AST [2]: -14 (26) U/L
Mean (SD) change from Baseline to Week 6 in ALP [3]: -138 (134) U/L
Mean (SD) change from Baseline to Week 6 in ALT [3]: -48 (74) U/L
Mean (SD) change from Baseline to Week 6 in AST [3]: -37 (49) U/L
Mean (SD) change from Baseline to Week 6 in ALP [4]: -185 (143) U/L
Mean (SD) change from Baseline to Week 6 in ALT [4]: -80 (56) U/L
Mean (SD) change from Baseline to Week 6 in AST [4]: -37 (39) U/L
Absolute change in ALP from Baseline to Week 6 (primary efficacy endpoint) (Period 1, both doses, compared to an increase in the placebo group): clinically meaningful and statistically significant decrease in ALP
Number of subjects achieving ALP <1.5 x ULN (Period 3, pooled active-to-active groups, depending on the week examined): 4-6
Reduction of GGT (Subject 18-003, 1,000 mg BID, Week 18): ~ 10%
ALP relative to ULN (Subject 18-003, 1,000 mg BID, after Week 12 through Week 18, baseline 1.8-fold ULN, prior UDCA 15 mg/kg): below 1.5 fold ULN
Reduction of GGT (Subject 23-004, 1,000 mg BID, Week 18): ~50%
ALP relative to ULN (Subject 23-004, 1,000 mg BID, Week 18, baseline 2.6-fold ULN, prior UDCA 12 mg/kg): below 1.6 fold ULN
Response rate with 1,000 mg BID compared with 500 mg BID, each efficacy endpoint (Week 6): ~ 2 fold
Share of subjects achieving a 25% reduction in ALP (active treatment, subjects without prior UDCA use): Over half
Mean total bilirubin, albumin, and platelets (all treatments throughout the study): remained stable and within normal range
Safety and tolerability (subjects with PSC, 500 mg BID and 1,000 mg BID, up to 18 weeks): safe and generally well tolerated
